Laboratory results taken from PubChem BioAssay AID248 (DTP/NCI, 2004).
Where “and” joins values, the source holds several entries; their conditions need not be identical. Equal entries are not always repeated. Toxic doses and inconclusive results are not listed. Rule as the data show it: active = T/C of 150% or more; inactive = T/C below 125%.

System: L1210 leukemia ip in BDF1 mice, survival T/C
Assay: NCI In Vivo Anticancer Drug Screen. Data for tumor model L1210 Leukemia (intraperitoneal) in B6D2F1 (BDF1) mice
Conditions: endpoint: mean survival time, higher = longer survival
Outline: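 Each compound was tested against a transplantable tumor grown in mice. The endpoint was survival, with treated animals benchmarked against vehicle controls as a simple ratio.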

[1] = dose: 100.0 mg/kg/injection, schedule: Q01DX001 (ip), vehicle: saline
[2] = dose: 200.0 mg/kg/injection, schedule: Q01DX001 (ip), vehicle: saline
[3] = dose: 400.0 mg/kg/injection, schedule: Q01DX001 (ip), vehicle: saline
[4] = dose: 50.0 mg/kg/injection, schedule: Q01DX009 (ip), vehicle: saline
[5] = dose: 100.0 mg/kg/injection, schedule: Q01DX009 (ip), vehicle: saline

Measured: T/C

CC1O/C(=N\O)C(C)O1 (stereo not given)
inactive: dose: 100.0 mg/kg/injection, schedule: Q01DX009 (ip), vehicle: carboxymethylcellulose (CMC) 95 % of control and 97 % of control | dose: 100.0 mg/kg/injection, schedule: Q04DX002 (ip), vehicle: carboxymethylcellulose (CMC) 106 % of control and 115 % of control | dose: 100.0 mg/kg/injection, schedule: Q04DX003 (ip), vehicle: carboxymethylcellulose (CMC) 93 % of control | dose: 200.0 mg/kg/injection, schedule: Q01DX009 (ip), vehicle: carboxymethylcellulose (CMC) 93 % of control and 95 % of control | dose: 200.0 mg/kg/injection, schedule: Q04DX002 (ip), vehicle: carboxymethylcellulose (CMC) 97 % of control and 102 % of control | dose: 200.0 mg/kg/injection, schedule: Q04DX003 (ip), vehicle: carboxymethylcellulose (CMC) 101 % of control | dose: 400.0 mg/kg/injection, schedule: Q01DX009 (ip), vehicle: carboxymethylcellulose (CMC) 93 % of control and 105 % of control | dose: 400.0 mg/kg/injection, schedule: Q04DX002 (ip), vehicle: carboxymethylcellulose (CMC) 95 % of control | dose: 400.0 mg/kg/injection, schedule: Q04DX003 (ip), vehicle: carboxymethylcellulose (CMC) 98 % of control

O=C(Nc1cccc(C(=O)Nc2cc(C3=NCCN3)cc(C3=NCCN3)c2)c1)Nc1cccc(C(=O)Nc2cc(C3=NCCN3)cc(C3=NCCN3)c2)c1
inactive: dose: 15.0 mg/kg/injection, schedule: Q01DX Z (ip), vehicle: methylcellulose (MC) 109 % of control | dose: 30.0 mg/kg/injection, schedule: Q01DX Z (ip), vehicle: methylcellulose (MC) 105 % of control | dose: 60.0 mg/kg/injection, schedule: Q01DX Z (ip), vehicle: methylcellulose (MC) 96 % of control

CC(C)(C)OC(=O)N1C2CCC(C2)N1C(=O)OC(C)(C)C
inactive: dose: 100.0 mg/kg/injection, schedule: Q01DX001 (ip), vehicle: carboxymethylcellulose (CMC) 100 % of control | dose: 200.0 mg/kg/injection, schedule: Q01DX001 (ip), vehicle: carboxymethylcellulose (CMC) 96 % of control | dose: 400.0 mg/kg/injection, schedule: Q01DX001 (ip), vehicle: carboxymethylcellulose (CMC) 96 % of control

CC(=O)NS(=O)(=O)c1cc(N)ccc1S(=O)(=O)c1ccc(N)cc1
inactive: [1] 94 % of control | [2] 92 % of control | [3] 92 % of control

CC(N)C(=O)c1ccccc1 (stereo not given)
inactive: [4] 97 % of control | [5] 92 % of control

CCc1ccccc1NC(=O)Sc1cccc(C)c1
inactive: dose: 25.0 mg/kg/injection, schedule: Q01DX009 (ip), vehicle: Klucel (hydroxypropylcellulose) (HPC) 96 % of control | dose: 50.0 mg/kg/injection, schedule: Q01DX009 (ip), vehicle: Klucel (hydroxypropylcellulose) (HPC) 96 % of control | dose: 100.0 mg/kg/injection, schedule: Q01DX009 (ip), vehicle: Klucel (hydroxypropylcellulose) (HPC) 98 % of control and 103 % of control | dose: 100.0 mg/kg/injection, schedule: Q04DX003 (ip), vehicle: Klucel (hydroxypropylcellulose) (HPC) 100 % of control | dose: 200.0 mg/kg/injection, schedule: Q04DX003 (ip), vehicle: Klucel (hydroxypropylcellulose) (HPC) 105 % of control

O=C1CCc2cc(Br)ccc2O1
inactive: dose: 50.0 mg/kg/injection, schedule: Q01DX001 (ip), vehicle: saline 92 % of control | [1] 103 % of control | [2] 100 % of control | [3] 100 % of control

ON=C(c1ccccc1)c1ccccc1
inactive: dose: 100.0 mg/kg/injection, schedule: Q01DX009 (ip), vehicle: saline with Tween-80 101 % of control | dose: 200.0 mg/kg/injection, schedule: Q01DX009 (ip), vehicle: saline with Tween-80 105 % of control

O=C(Sc1ccccc1)C(Cl)(Cl)Cl
inactive: dose: 25.0 mg/kg/injection, schedule: Q01DX009 (ip), vehicle: saline 103 % of control | [4] 97 % of control | dose: 50.0 mg/kg/injection, schedule: Q04DX003 (ip), vehicle: saline 97 % of control | dose: 100.0 mg/kg/injection, schedule: Q01DX001 (ip), vehicle: acetone 101 % of control | [5] 95 % of control | dose: 100.0 mg/kg/injection, schedule: Q04DX003 (ip), vehicle: saline 94 % of control | dose: 200.0 mg/kg/injection, schedule: Q01DX001 (ip), vehicle: acetone 95 % of control

CC(C)NC(=O)CCSCCC(=O)NC(C)C
inactive: dose: 200.0 mg/kg/injection, schedule: Q04DX002 (ip), vehicle: other 94 % of control | dose: 400.0 mg/kg/injection, schedule: Q04DX002 (ip), vehicle: other 94 % of control
